Assays:
[1] = target: Cyclin-dependent kinase 5 (Homo sapiens, UniProt Q00535); experiment: Inhibition of CDK5 (unknown origin)
[2] = target: Cyclin-dependent kinase 7 (Homo sapiens, UniProt P50613); experiment: Inhibition of CDK7 (unknown origin)
Chain of Cyclin-dependent kinase 7 (P50613 whole entry): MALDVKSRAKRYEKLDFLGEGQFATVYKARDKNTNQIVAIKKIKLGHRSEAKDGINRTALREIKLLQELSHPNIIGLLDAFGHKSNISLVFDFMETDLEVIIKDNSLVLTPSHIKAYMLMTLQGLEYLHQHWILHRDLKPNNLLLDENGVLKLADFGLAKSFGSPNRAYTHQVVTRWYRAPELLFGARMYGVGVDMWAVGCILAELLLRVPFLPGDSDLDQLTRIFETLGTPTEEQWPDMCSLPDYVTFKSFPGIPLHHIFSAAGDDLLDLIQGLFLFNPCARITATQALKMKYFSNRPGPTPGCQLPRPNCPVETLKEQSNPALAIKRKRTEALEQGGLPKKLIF

Chain of Cyclin-dependent kinase 5 (Q00535 whole entry): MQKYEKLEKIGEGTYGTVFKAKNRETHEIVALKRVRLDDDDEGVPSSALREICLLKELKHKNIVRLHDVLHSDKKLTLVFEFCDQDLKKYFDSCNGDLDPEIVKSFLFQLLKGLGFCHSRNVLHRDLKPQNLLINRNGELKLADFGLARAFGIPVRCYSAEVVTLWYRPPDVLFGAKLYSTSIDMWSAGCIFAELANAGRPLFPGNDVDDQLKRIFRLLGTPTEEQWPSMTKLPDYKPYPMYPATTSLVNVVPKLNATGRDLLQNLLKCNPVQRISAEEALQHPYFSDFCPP

`CC[C@H](Nc1nc(NCc2cnc(C)cc2C)c2ncn(C(C)C)c2n1)[C@@H](C)O` [US8592581, 1] was tested, and the IC50 [1] was 21 nM and the IC50 [2] was 193 nM.

Reference: BindingDB's records for PubMed 35814933 (Nankai University, 2022)
